According to US20260028334A1, “N-(3-(BENZO[B]THIOPHENE-2-CARBOXAMIDO)-PHENYL)-2,3-DIHYDROBENZO[B][1,4]DIOXINE-6-CARBOXAMIDE DERIVATIVES AND RELATED COMPOUNDS AS LACTATE/ATP PRODUCTION INHIBITORS FOR THE TREATMENT OF CANCER” (WMT Aktiengesellschaft, priority 2022, published 2026):

Legend:
Format in all cases: cell-based
[1] = test system: Panc02 and SKOV3 cells; assay: Lactate production inhibition assay (FIGS. 8C and 8D); settings: 48 hours treatment, 1.5 to 10000 nM
From the text: (§1) Recombinant Lactate Dehydrogenase A (LDHA) was used to convert lactate in tissue culture supernatants to pyruvate, with the concomitant reduction of NAD^+ to NADH. The electron acceptor 1-methoxyphenazine methosulfate (MPMS) was then reduced by the generated NADH, thereby regenerating NAD+. Reduced 1-methoxyphenazine methosulfate is used in turn to reduce Water Soluble Tetrazolium 8 (WST8) to an orange WST8 formazan product. The assay is adapted from the publication “Application of WST-8 based colorimetric NAD(P)H detection for quantitative dehydrogenase assays” described in Chamchoy et al., BMC Biochemistry (2019) 20(1):4.
Cells were plated at 4,000 per well in 96-well plate in a medium of high glucose DMEM (PAN) supplemented with 10% FBS (PAN), 2 mM glutamine-alanine (PAN), 2 mM pyruvate (Sigma) and 10 mL/L penicillin-streptomycin (PAN) and grown at 37° C. in 0.5% O2, 5% CO2 and 75% humidity. For hypoxia, cells were grown and treated in the Whitley H35 Hypoxystation (Don Whitley Scientific) at 37° C. in 0.5% O2, 5% CO2 and 75% humidity. The next day, cells were induced with test compounds (FIG. 2: compounds of examples 3/16, 3/8, 10 at 10000, 3333, 1111, 370, 123, 41, 14, 5 and 1.5 nM; FIG. 7: compounds of examples 3/16, 3/8, 10 at 41, 14, 4.6 nM and Phenformin at 100, 50, 25, 12.5, 6.25 μM; FIGS. 8C and 8D: compounds of example 3/16, 3/8, 10, 3/19, 30 and 30/2 at 10000, 3333, 1111, 370, 123, 41, 14, 5 and 1.5 nM), as well as with vehicle (DMSO) only, for 48 hours. After this time, the medium was removed from the cells to measure extracellular lactate. To detect extracellular lactate, cell supernatants are diluted 1:5 in assay buffer (0.2 M tris, pH 8.2) by adding 10 μl cell supernatant+40 μl buffer in a 96-well plate. Assay substrate mix is prepared by adding NAD+ (3.75 mM), WST-8 (0.9 mM), MPMS (10 mM) and recombinant LDHA, expressed in E. coli as an N-terminal hexahistidine tagged fusion protein, is added to a final concentration of 0.8 μg/ml in assay buffer. Thereafter, 80 μl of substrate mix is added to 20 μl of diluted cell supernatant in a 96-well flat-bottomed plate and the absorbance at 460 nm determined at one minute intervals over a 30 minute period. A standard curve of known lactate concentrations of 10, 8, 6, 4, 1, 0.5 and 0.25 mM was constructed for each assay plate.

[2] = test system: HeLa, 4T1, LLC1, A549, MDA-MB-231 and MiaPaCa2 cells; assay: Lactate production inhibition assay (FIG. 2); settings: 48 hours treatment, 1.5 to 10000 nM
From the text: as §1
Cells were plated at 4,000 per well in 96-well plate in a medium of high glucose DMEM (PAN) supplemented with 10% FBS (PAN), 2 mM glutamine-alanine (PAN), 2 mM pyruvate (Sigma) and 10 mL/L penicillin-streptomycin (PAN) and grown at 37° C. in 0.5% O2, 5% CO2 and 75% humidity. For hypoxia, cells were grown and treated in the Whitley H35 Hypoxystation (Don Whitley Scientific) at 37° C. in 0.5% O2, 5% CO2 and 75% humidity. […] Thereafter, 80 μl of substrate mix is added to 20 μl of diluted cell supernatant in a 96-well flat-bottomed plate and the absorbance at 460 nm determined at one minute intervals over a 30 minute period. […]

[3] = test system: ER stress markers CHAC, CHOP/DDIT3, XBP1 and SLC7A11; assay: Gene expression analysis by qPCR (FIG. 3); settings: HeLa, 4T1, LLC1, A549, MDA-MB-231 and MiaPaCa2 cells, 10 nM, 0.5, 1, 2 and 4 hours
Protocol: Cells were plated at 40,000 cells per ml in medium of high glucose DMEM (PAN) supplemented with 10% FBS (PAN), 2 mM glutamine-alanine (PAN), 2 mM pyruvate (Sigma) and 10 mL/L penicillin-streptomycin (PAN), and grown at 37° C. in 0.5% O2, 5% CO2 and 75% humidity. Next day, cells were induced with test compounds (FIG. 3: compounds of example 3/16, 3/8, 10 at 10 nM; FIG. 8E-8AB: compounds of example 3/16, 3/8, 10, 3/19, 30 and 30/2 at 10 nM) 0.5, 1, 2 and 4 hours, as well as with vehicle (DMSO) only. After this time, the cells were lysed according to protocol (Promega, SV 96 Total RNA Isolation System, #Z3505). After transferring the lysate to a 96-well-RNA binding plate, RNA was isolated and put at approx. 1 μg into cDNA synthesis using LunaScript RT SuperMix Kit (NEB, #E3010). The resulting cDNA was diluted 1:5 and used for qPCR Analysis (Taqman). Luna Universal Probe qPCR Master Mix (NEB, #M3004) is used as 2× reaction mix to which the diluted cDNA is added. The qPCR analysis was performed using QuantStudio™ 6 Flex real-time PCR systems (Thermo Fisher Scientific).
A set of primers plus probe for each gene of interest was purchased at IDT (Integrated DNA Technologies).

Compound | lactate levels [1] | lactate production level [2] | ER stress markers CHAC, CHOP/DDIT3, XBP1 and SLC7A11 [3]
O=C(Nc1ccc(F)c(NC(=O)c2cc3ccc(OCCCN4CCCC4)cc3s2)c1)c1ccc2c(c1)OCCO2 [3/8] | dose-dependent downregulation | dose-dependent reduction | time-dependent upregulation
Cc1ccc(NC(=O)c2ccc3c(c2)OCCO3)cc1NC(=O)c1cc2cccnc2s1 [3/16] | dose-dependent downregulation | dose-dependent reduction | time-dependent upregulation
